Source: patent US20210238162A1, “CHEMICAL COMPOUNDS” (GlaxoSmithKline Intellectual Property Development Limited, priority 2015, published 2021)
Structures can show the parent of a compound that is named as a salt.

Legend:
[1] = biological target: T1, haematopoietic prostaglandin D synthase (H-PGDS) (Homo sapiens, UniProt O60760); test: H-PGDS RapidFire High Throughput Mass Spectrometry Assay; format: biochemical; details: H-PGDS RapidFire MS assay, mean pIC50; read-out: Potency Range (mean pIC50) (converted)
T1 construct: Full length human H-PGDS cDNA (Invitrogen Ultimate ORF IOH13026) was amplified by PCR; made in house; host or cells: E. coli BL21 (DE3*), vector pET22b+
T1 sequence (O60760 whole entry): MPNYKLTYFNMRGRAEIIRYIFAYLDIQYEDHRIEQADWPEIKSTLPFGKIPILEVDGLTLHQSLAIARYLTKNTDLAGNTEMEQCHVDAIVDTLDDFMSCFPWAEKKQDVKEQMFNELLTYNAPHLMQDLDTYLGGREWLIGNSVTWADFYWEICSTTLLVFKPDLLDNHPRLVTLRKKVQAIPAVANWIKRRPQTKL
Outline: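 PGH2 (~10 μM burst) generated in situ from arachidonic acid by FLAG-tagged human COX-2 (Sf9-expressed), then converted to PGD2 by full-length human His-tagged H-PGDS from E. coli. PGD2 and PGF2α (substrate surrogate) quantified by RapidFire SPE-triple quadrupole MS; percent conversion calculated.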

[2] = tested on: male C57BL/mdx mice; test: In vivo functional response to eccentric contraction-induced muscle damage in mdx mice (Duchenne Muscular Dystrophy model); set-up: species or system mouse; details: 30 mg/kg BID; 8 month-old male C57BL/mdx mice; FIG. 2
Description: (§1) Under anesthesia, the right hind limb of a mouse is restrained at the knee and the foot attached to a motorized footplate/force transducer. Needle electrodes are inserted into the upper limb, either side of the sciatic nerve and a current sufficient to elicit a maximal muscle contraction is applied. Muscle tension is produced by moving the footplate to lengthen the plantarflexor muscles while the limb is under maximal stimulation. This is repeated 60 times to fatigue the muscles of the lower limb. Anesthesia, limb immobilization and limb stimulation are then repeated at regular intervals to measure maximal isometric force in the recovering limb. 7 to 9 animals are tested for each test condition.
The force deficit and recovery kinetics following eccentric contraction-induced muscle damage was also evaluated in middle-aged (8 month-old) male C57BL/mdx mice, a preclinical model of Duchenne Muscular Dystrophy. In this dystrophin-null background, the protocol elicited a greater functional deficit (˜75%) and a protracted recovery interval, as shown in the eccentric vehicle controls.

[3] = tested on: mdx mice; test: Functional repair following limb muscle injury in mdx mice (FIG. 2); format: in vivo
[4] = tested on: male C57Bl/6N mice; test: In vivo functional response to muscle injury (eccentric contraction-induced muscle fatigue); set-up: species or system mouse; details: FIG. 1
Description: as §1

Row | SMILES | IC50 [1] [nM] | other results
1 | O=C(N[C@H]1CCNC1=O)c1cnc2cc(OC(F)F)c(F)cc2c1 [Example 48, (S)-7-(Difluoromethoxy)-6-fluoro-N-(2-oxopyrrolidin-3-yl)quinoline-3-carboxamide] | 10 to 79.4 | force deficit at 24-hours [2]: significantly blunted the force deficit at 24-hours; rate and extent of functional recovery [2]: improved both the rate and extent of functional recovery; protection and acceleration of functional repair dose response curves of PGDS Inhibition [3]: protection and acceleration of functional repair
2 | C=Cc1cc2ncc(C(=O)N[C@H]3CC[C@H](C(C)(C)O)CC3)cc2cc1Cl [Example 225, 6-Chloro-N-((trans)-4-(2-hydroxypropan-2-yl)cyclohexyl)-7-vinylquinoline-3-carboxamide] | 10 to 79.4 | 
3 | CC(C)(O)[C@H]1CC[C@H](NC(=O)c2cnc3cc(C(F)(F)F)ccc3c2)CC1 [Example 190, N-(trans-4-(2-Hydroxypropan-2-yl)cyclohexyl)-7-(trifluoromethyl)quinoline-3-carboxamide] | 100 to 1000 | 
4 | CC(C)(O)[C@H]1CC[C@H](NC(=O)c2cnc3cc(C4CC4)c(F)cc3c2)CC1 [Example 42, 7-Cyclopropyl-6-fluoro-N-(trans-4-(2-hydroxypropan-2-yl)cyclohexyl)quinoline-3-carboxamide] | < 10 | 
5 | C[C@]1(O)C[C@@H](NC(=O)c2cnc3cc(C4CCC4)c(Cl)cc3c2)C1 [Example 180, 6-Chloro-7-cyclobutyl-N-((1s,3s)-3-hydroxy-3-methylcyclobutyl)quinoline-3-carboxamide] | 10 to 79.4 | 
6 | O=C(N[C@H]1CCNC1=O)c1cnc2cc(C3CC3)c(F)cc2c1 [Example 41, (S)-7-cyclopropyl-6-fluoro-N-(2-oxopyrrolidin-3-yl)quinoline-3-carboxamide hydrochloride] | 10 to 79.4 | 
7 | O=C(N[C@H]1CC[C@H](N[C@H](CO)C(F)(F)F)CC1)c1cnc2cc(OC(F)F)c(F)cc2c1 [Example 77, 7-(Difluoromethoxy)-6-fluoro-N-(trans-4-(((R)-1,1,1-trifluoro-3-hydroxypropan-2-yl)amino)cyclohexyl)quinoline-3-carboxamide] | 10 to 79.4 | 
8 | COc1cc2ncc(C(=O)NC3CCN(c4nnnn4C)CC3)cc2cc1C [Example 29, 7-Methoxy-6-methyl-N-(1-(1-methyl-1H-tetrazol-5-yl)piperidin-4-yl)quinoline-3-carboxamide] | 10 to 79.4 | 
9 | O=C(NC1CCN(c2cccnc2)CC1)c1cnc2cc(OC(F)F)c(F)cc2c1 [Example 96, 7-(Difluoromethoxy)-6-fluoro-N-(1-(pyridin-3-yl)piperidin-4-yl)quinoline-3-carboxamide] | 10 to 79.4 | 
10 | CCOC(=O)c1cnc(N2CCC(NC(=O)c3cnc4cc(OC(F)F)c(F)cc4c3)CC2)o1 [Example 72, Ethyl 2-(4-(7-(difluoromethoxy)-6-fluoroquinoline-3-carboxamido)piperidin-1-yl)oxazole-5-carboxylate] | 10 to 79.4 | 
11 | O=C(N[C@H]1CCN(CC2CC2)C1=O)c1cnc2cc(OC(F)F)c(F)cc2c1 [Example 53, (S)—N-(1-(Cyclopropylmethyl)-2-oxopyrrolidin-3-yl)-7-(difluoromethoxy)-6-fluoroquinoline-3-carboxamide] | 10 to 79.4 | 
12 | CC(C)(O)[C@H]1CC[C@H](NC(=O)c2cnc3cc(OC(F)F)ccc3c2)CC1 [Example 6, 7-(Difluoromethoxy)-N-((trans)-4-(2-hydroxypropan-2-yl)cyclohexyl)quinoline-3-carboxamide] |  | kinetics of recovery of maximal isometric force ([4]; PO 1, 3 and 10 mg/kg BID beginning 10 min prior to eccentric contraction challenge): acceleration in the kinetics of recovery; initial magnitude of the injury (isometric limb force 24-hours following protocol initiation) ([4]; PO 3 and 10 mg/kg BID): reduced the initial magnitude of the injury
13 | O=C(N[C@H]1CC[C@H](N[C@H](CO)C(F)(F)F)CC1)c1cnc2cc(OC(F)F)c(Br)cc2c1 [Example 155, 6-Bromo-7-(difluoromethoxy)-N-(trans-4-(((R)-1,1,1-trifluoro-3-hydroxypropan-2-yl)amino)cyclohexyl)quinoline-3-carboxamide] | < 10 | 
14 | CC(C)(O)C(=O)N[C@H]1C[C@H](NC(=O)c2cnc3cc(OC(F)F)c(Cl)cc3c2)C1 [Example 226, 6-Chloro-7-(difluoromethoxy)-N-(trans-3-(2-hydroxy-2-methylpropanamido)cyclobutyl)quinoline-3-carboxamide] | 10 to 79.4 | 
15 | O=C(N[C@H]1CC[C@H](N2CC(O)(C(F)(F)F)C2)CC1)c1cnc2cc(OC(F)F)c(Cl)cc2c1 [Example 134, 6-Chloro-7-(difluoromethoxy)-N-(trans-4-(3-hydroxy-3-(trifluoromethyl)azetidin-1-yl)cyclohexyl)quinoline-3-carboxamide] | < 10 | 
16 | CC(C)(O)[C@H]1CC[C@H](NC(=O)c2cnc3c(Cl)c(OC(F)F)c(F)cc3c2)CC1 [Example 235, 8-Chloro-7-(difluoromethoxy)-6-fluoro-N-(trans-4-(2-hydroxypropan-2-yl)cyclohexyl)quinoline-3-carboxamide] | 10 to 79.4 | 
17 | O=C(N[C@H]1CC[C@H](C2(O)CC2)CC1)c1cnc2cc(OC(F)F)ccc2c1 [Example 18, 7-(Difluoromethoxy)-N-(trans-4-(1-hydroxycyclopropyl)cyclohexyl)quinoline-3-carboxamide] | < 10 | 
18 | Cn1nnnc1N1CCC(NC(=O)c2cnc3ccc(Cl)cc3c2)CC1 [Example 106, 6-Chloro-N-(1-(1-methyl-1H-tetrazol-5-yl)piperidin-4-yl)quinoline-3-carboxamide] | 100 to 1000 | 
19 | CCOC(=O)c1coc(N2CC(NC(=O)c3cnc4cc(OC(F)F)c(F)cc4c3)C2)n1 [Example 82, Ethyl 2-(3-(7-(difluoromethoxy)-6-fluoroquinoline-3-carboxamido)azetidin-1-yl)oxazole-4-carboxylate] | 10 to 79.4 | 
